Results from article PMC5926414 (Japanese Journal of Cancer Research : Gann, 2000).
Where two headings read alike, the source gives them in different places. Square brackets hold non-standard residues; d marks the D form. Peptide text beside a SMILES is read from it. * marks the point of attachment. X1 = COC1=CC(=O)N(C(=O)[C@@H](O*)C(C)C)[C@H]1Cc1ccccc1; NMe2Val = CC(C)[C@@H](C(=O)*)N(C)C; NMeV = CN[C@H](C(=O)O)C(C)C

Assays:
[1] = biological target: T1, porcine brain tubulin (Sus scrofa, UniProt P02550+P02554); type: binding
T1 sequence (P02550 whole entry): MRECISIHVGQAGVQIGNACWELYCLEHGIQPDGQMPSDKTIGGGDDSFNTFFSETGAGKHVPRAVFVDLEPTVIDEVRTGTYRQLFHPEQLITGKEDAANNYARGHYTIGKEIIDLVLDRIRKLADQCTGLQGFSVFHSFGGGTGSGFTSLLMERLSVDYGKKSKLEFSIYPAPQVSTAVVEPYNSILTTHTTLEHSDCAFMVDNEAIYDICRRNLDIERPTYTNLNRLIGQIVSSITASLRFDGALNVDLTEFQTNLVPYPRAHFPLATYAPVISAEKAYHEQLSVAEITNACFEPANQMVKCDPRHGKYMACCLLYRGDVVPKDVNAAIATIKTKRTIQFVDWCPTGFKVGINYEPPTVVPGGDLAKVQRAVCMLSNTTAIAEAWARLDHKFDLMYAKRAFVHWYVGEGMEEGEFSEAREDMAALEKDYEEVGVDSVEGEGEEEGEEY
T1 sequence (P02554 whole entry): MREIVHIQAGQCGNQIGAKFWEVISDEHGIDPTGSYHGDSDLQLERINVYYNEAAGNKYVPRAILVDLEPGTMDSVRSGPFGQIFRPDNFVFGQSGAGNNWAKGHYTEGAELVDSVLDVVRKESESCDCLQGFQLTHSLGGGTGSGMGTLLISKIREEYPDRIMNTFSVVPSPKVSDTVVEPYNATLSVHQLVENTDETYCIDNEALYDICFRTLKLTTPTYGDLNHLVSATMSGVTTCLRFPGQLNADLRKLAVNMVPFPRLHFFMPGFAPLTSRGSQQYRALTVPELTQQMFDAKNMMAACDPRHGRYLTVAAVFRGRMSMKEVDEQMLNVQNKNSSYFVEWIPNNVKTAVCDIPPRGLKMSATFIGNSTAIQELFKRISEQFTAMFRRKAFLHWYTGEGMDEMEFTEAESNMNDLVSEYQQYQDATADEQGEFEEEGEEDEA

[2] = biological target: T2, porcine brain microtubule protein (Sus scrofa, UniProt P02550+P02554); test: biochemical
T2 sequence (P02550 whole entry): as the sequence (P02550 whole entry) above
T2 sequence (P02554 whole entry): as the sequence (P02554 whole entry) above

[3] = biological target: T3, bovine brain tubulin (Bos taurus, UniProt P81947+Q6B856); test: biochemical
T3 sequence (P81947 whole entry): as the sequence (P02550 whole entry) above, with S136L, G232S, A265I, T340S, E358Q counted along it
T3 sequence (Q6B856 whole entry): as the sequence (P02554 whole entry) above, with A55T, V170M, A296S, V316I, G440E, E441G counted along it

[4] = biological target: T1, porcine brain tubulin; test: biochemical; type: binding
[5] = test system: porcine brain tubulin; type: binding
[6] = test system: porcine brain tubulin; type: biochemical
[7] = biological target: T2, porcine brain microtubule protein; test: biochemical; details: read-out: inhibition of microtubule polymerization, agent alone
[8] = test system: porcine brain tubulin; details: ref 28 (Huang et al.); cited from earlier work
[9] = biological target: T3, bovine brain tubulin; details: read-out: IC50, inhibition of monosodium glutamate-induced tubulin polymerization; in 4% DMSO; ref 8 (Bai et al.); cited from earlier work

SMILES | displacement of [3H]TZT-1027 on tubulin [1] | displacement of [3H]VLB on tubulin [1] | IC50 [2] | inhibitory effect on microtubule polymerization at high concentration [2] | IC50 [3] | effect on tubulin polymerization at high concentration [3] | Bmax, binding to tubulin (one binding site) [4] | Kd [4] | inhibition of [3H]GTP binding to tubulin [5] | inhibition of GTP hydrolysis on tubulin [6] | inhibition at 3 µM [7] | concentration with inhibitory effect on the binding of GTP to tubulin [8] | inhibition at 3 µM ([3]; read-out: inhibition of monosodium glutamate-induced tubulin polymerization) | IC50 [9]
CC(=O)O[C@H]1C(=O)[C@@]2(C)[C@H]([C@H](OC(=O)c3ccccc3)[C@]3(O)C[C@H](OC(=O)[C@H](O)[C@@H](NC(=O)c4ccccc4)c4ccccc4)C(C)=C1C3(C)C)[C@]1(OC(C)=O)CO[C@@H]1C[C@@H]2O [PTX, paclitaxel] | did not have remarkable inhibitory effects | did not have remarkable inhibitory effects | – | – | – | – | – | – | – | – | – | – | – | –
CC[C@]1(O)C[C@@H]2CN(CCc3c([nH]c4ccccc34)[C@@](C(=O)OC)(c3cc4c(cc3OC)N(C)[C@H]3[C@@](O)(C(=O)OC)[C@H](OC(C)=O)[C@]5(CC)C=CCN6CC[C@]43[C@@H]65)C2)C1 [VLB, vinblastine] | only incompletely | – | 2700 ± 600 nM | slight decrease in inhibitory effect | 600 nM | aggregation | 6.0±0.26 nM/mg protein | 200 ± 40 nM | no inhibitory effect | concentration-dependent inhibition | 64.7% | above 100 M | – | –
CC[C@H](C)[C@@H]([C@@H](CC(=O)N1CCC[C@H]1[C@H](OC)[C@@H](C)C(=O)N[C@@H](Cc1ccccc1)c1nccs1)OC)N(C)C(=O)[C@@H](NC(=O)[C@H](C(C)C)N(C)C)C(C)C [dolastatin 10] | completely displaced | completely displaced | 2300 ± 700 nM | – | 2800 nM | no further increase in inhibition | – | – | concentration-dependent inhibition | concentration-dependent inhibition | – | – | 88% | 1200 nM
CC[C@]1(O)C[C@H]2CN(CCc3c([nH]c4ccccc34)[C@@](C(=O)OC)(c3cc4c(cc3OC)N(C=O)[C@H]3[C@@](O)(C(=O)OC)[C@H](OC(C)=O)[C@]5(CC)C=CCN6CC[C@]43[C@@H]65)C2)C1 [VCR, vincristine] | the displacement was not complete | – | 1600 ± 400 nM | slight decrease in inhibitory effect | – | – | – | – | – | – | – | – | – | –
COC1=CC(=O)N(C(=O)[C@@H](OC(=O)[C@@H]2CCCN2C(=O)[C@@H]2CCCN2C(=O)[C@H](C(C)C)N(C)C(=O)[C@@H](NC(=O)[C@H](C(C)C)N(C)C)C(C)C)C(C)C)[C@H]1Cc1ccccc1 [dolastatin 15] (NMe2Val-V[NMeV]PP-X1) | did not have remarkable inhibitory effects | did not have remarkable inhibitory effects | – | – | – | – | – | – | – | concentration-dependent inhibition | – | – | – | –
